Data set [1] has as its target T1, Cholinesterase (Homo sapiens, UniProt P06276). Nature of the data set: Inhibition of human BChE using acetylthiocholine iodide or butyrylthiocholine iodide as substrate preincubated for 5 mins followed by substrate addition by Ellman's method.
For data set [2], the target named is Cholinesterase (Equus caballus, UniProt P81908). As to the kind of experiment: Inhibition of horse serum BChE using acetylthiocholine iodide or butyrylthiocholine iodide as substrate preincubated for 5 mins followed by substrate addition by Ellman's method.
Cholinesterase (Equus caballus, UniProt P81908), sequence (P81908 whole entry): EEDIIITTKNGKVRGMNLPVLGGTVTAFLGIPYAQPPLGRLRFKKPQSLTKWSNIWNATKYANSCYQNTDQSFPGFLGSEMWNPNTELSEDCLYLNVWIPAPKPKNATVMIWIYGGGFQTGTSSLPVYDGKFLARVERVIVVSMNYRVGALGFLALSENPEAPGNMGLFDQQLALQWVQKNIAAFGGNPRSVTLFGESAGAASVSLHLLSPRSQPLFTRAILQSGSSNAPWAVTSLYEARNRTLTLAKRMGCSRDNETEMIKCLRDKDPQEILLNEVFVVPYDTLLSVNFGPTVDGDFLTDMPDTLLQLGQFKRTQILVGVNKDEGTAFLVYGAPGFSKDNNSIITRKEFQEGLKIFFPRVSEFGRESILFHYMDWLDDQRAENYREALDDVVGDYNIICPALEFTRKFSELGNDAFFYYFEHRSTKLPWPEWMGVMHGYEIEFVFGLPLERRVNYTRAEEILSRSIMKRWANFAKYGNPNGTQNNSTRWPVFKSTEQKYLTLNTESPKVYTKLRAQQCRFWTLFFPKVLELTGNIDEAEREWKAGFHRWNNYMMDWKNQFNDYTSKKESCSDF
A further data set deals with HT-22. Nature of the data set: Cytotoxicity against mouse HT-22 cells assessed as reduction in cell viability at 10 uM by MTT assay. In kind it is toxicity, cell-based. The following applies: ht-22, 10 µM.
Another data set concerns SH-SY5Y. Nature of the data set: Cytotoxicity against human SH-SY5Y cells assessed as reduction in cell viability at 10 uM by MTT assay. Type of data set: toxicity, cell-based.
Data set [3] can be described thus: Cytotoxicity against human SH-SY5Y cells assessed as cell survival rate at 10 uM by MTT assay. To be noted: read-out: Activity. In kind it is toxicity, cell-based.
The nature of data set [4]: Cytotoxicity against rat PC-12 cells assessed as cell survival rate at 10 uM by MTT assay. In kind it is toxicity, cell-based. To be noted: read-out: Activity.
A further data set has as its system BV-2. As to the kind of experiment: Cytotoxicity against mouse BV-2 cells assessed as reduction in cell viability at 10 uM by MTT assay. The following applies: bv-2, 10 µM. Type of data set: toxicity, cell-based.
The nature of data set [5]: Cytotoxicity against mouse BV-2 cells assessed as cell survival rate at 10 uM by MTT assay. Type of data set: toxicity, cell-based. To be noted: read-out: Activity.
In data set [6] the test system is PC-12. As to the kind of experiment: Cytotoxicity against rat PC-12 cells assessed as reduction in cell viability at 10 uM by MTT assay. In kind it is toxicity, cell-based. To be noted: pc-12, 10 µM.
Data set [7] in a line: Cytotoxicity against mouse HT-22 cells assessed as cell survival rate at 10 uM by MTT assay. In kind it is toxicity, cell-based. The following applies: read-out: Activity.
The target in data set [8] is T1, Cholinesterase. As to the kind of experiment: Inhibition of human BChE assessed as inhibition constant.
A short description of data set [9]: n-octanol-water partition coefficient, log P of the compound by HPLC analysis. In kind it is physicochemical.
The nature of data set [10]: Permeability of compound incubated for 18 hrs by PAMPA-BBB assay. In kind it is ADME. To be noted: read-out: permeability.
In data set [11] the test system is PC-12. Nature of the data set: Neuroprotective activity against H2O2-induced cell damage in rat PC-12 cells assessed as survival rate at 5 to 10 uM pretreated for 2 hrs followed by H2O2 addition and measured after 24 hrs by MTT assay. Type of data set: functional. The following applies: dose 5-10 µM, time 26 hrs.
Data set [12] in a line: Inhibition of human BChE assessed as inhibition constant.

T1 sequence (P06276 whole entry): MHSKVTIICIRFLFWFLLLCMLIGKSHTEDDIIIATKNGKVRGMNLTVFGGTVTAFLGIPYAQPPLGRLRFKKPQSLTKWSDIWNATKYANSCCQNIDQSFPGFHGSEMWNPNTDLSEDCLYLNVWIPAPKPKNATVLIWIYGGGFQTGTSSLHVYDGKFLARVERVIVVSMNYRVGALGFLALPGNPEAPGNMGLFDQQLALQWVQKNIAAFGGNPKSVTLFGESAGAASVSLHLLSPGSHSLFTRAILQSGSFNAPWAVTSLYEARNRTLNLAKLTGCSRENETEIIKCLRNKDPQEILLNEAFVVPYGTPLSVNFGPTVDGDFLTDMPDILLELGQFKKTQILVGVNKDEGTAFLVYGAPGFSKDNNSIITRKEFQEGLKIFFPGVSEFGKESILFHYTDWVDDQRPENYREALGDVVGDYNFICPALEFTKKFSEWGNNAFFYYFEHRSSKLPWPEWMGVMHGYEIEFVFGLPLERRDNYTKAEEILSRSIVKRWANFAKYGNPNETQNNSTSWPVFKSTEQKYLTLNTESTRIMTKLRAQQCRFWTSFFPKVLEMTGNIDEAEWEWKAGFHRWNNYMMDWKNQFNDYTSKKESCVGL

Consider `CCN(CC)Cc1ccccc1CNC(=O)c1cccc(NC(=O)c2ccccc2F)c1`, for which the IC50 against Cholinesterase [1] is 5.04 nM; against Cholinesterase [2] it was 6.54 nM.

In the case of `CCN(CC)Cc1ccccc1CNC(=O)c1ccc(C)c(NC(=O)c2ccc(F)cc2)c1`, the IC50 is 135 nM on Cholinesterase [1] and 0.38 nM against Cholinesterase [2].

For `CCN(CC)Cc1ccc(CNC(=O)c2cccc(NC(=O)c3cccs3)c2)cc1`, the IC50 against Cholinesterase [1] came to 3440 nM; against Cholinesterase [2] it was 5950 nM.

On to `CCN(CC)Cc1ccccc1CNC(=O)c1cc(NC(=O)c2ccc(F)cc2)cc([N+](=O)[O-])c1`, for which the Activity result in the data set with HT-22, in the data set with SH-SY5Y, with BV-2 and in the data set with PC-12 [6] was “Non-Toxic” each time. The viability at 10 µM in data set [3], in [4], in [5] and in data set [7] was more than 70% in each case. Further, the IC50 turned out to be 1.04 nM against Cholinesterase [1] and 1.27 nM on Cholinesterase [2].

Regarding `CCN(CC)Cc1ccccc1CNC(=O)c1cc(NC(=O)c2ccc(F)cc2)ccc1C`, the Activity entry in the data set on HT-22, in the data set with SH-SY5Y, in the data set on BV-2 and with PC-12 [6] was “Non-Toxic” each time. The viability at 10 µM in data set [3], in data set [4], in data set [5] and in [7] was more than 70% throughout. The IC50 against Cholinesterase [1] came out at 2.71 nM; against Cholinesterase [2] it was 1.35 nM.

As for `Cc1ccc2c(c1)sc(-c1ccc(N(C)C)cc1)[n+]2C` [THIOFLAVIN T], the Ki at Cholinesterase [8] turned out to be 800 nM.

In turn, `CCN(CC)Cc1ccccc1CNC(=O)c1cccc(NC(=O)c2ccc(Cl)cc2)c1` displayed a logP in data set [9] of 2.67. The Papp at 18 h in data set [10] amounted to 6.02 ×10⁻⁶ cm/s. Moreover, the IC50 at Cholinesterase [1] worked out at 0.76 nM; at Cholinesterase [2], 1.02 nM.

As for `CCN(CC)Cc1ccccc1CNC(=O)c1cc(NC(=O)c2ccc(F)cc2)cc(OC)c1`, the IC50 worked out at 136 nM against Cholinesterase [1] and 0.82 nM against Cholinesterase [2].

In [9], `CCN(CC)Cc1ccccc1CNC(=O)c1cccc(NC(=O)c2ccc(F)cc2)c1C` showed a logP of 1.02. Further, the Papp at 18 h in data set [10] stood at 11.4 ×10⁻⁶ cm/s. The IC50 against Cholinesterase [1] is 0.26 nM; against Cholinesterase [2] it was 0.14 nM.

At Cholinesterase [1], `CCN(CC)Cc1ccccc1NC(=O)c1cccc(NC(=O)c2cccs2)c1` showed an IC50 of 540 nM.

As to `CCCN(CCC)Cc1ccccc1CNC(=O)c1cccc(NC(=O)c2cccs2)c1`, the Activity result is on record as “Non-Toxic” with HT-22; “Non-Toxic” in the data set with SH-SY5Y; “Non-Toxic” with BV-2; “Non-Toxic” with PC-12 [6]; 61.7% in the data set with PC-12 [11]. The same compound displayed a logP in data set [9] of 1.02. In [10], the Papp at 18 h turned out to be 8.69 ×10⁻⁶ cm/s. Moreover, the viability at 10 µM in data set [3], in [4], in data set [5] and in data set [7] was more than 70% each time. This compound also gave an IC50 against Cholinesterase [1] of 0.67 nM.

For the compound `CCN(CC)Cc1ccccc1CNC(=O)c1cccc(NC(=O)c2c(F)c(F)c(F)c(F)c2F)c1`, the IC50 stood at 1.28 nM at Cholinesterase [1] and 0.48 nM at Cholinesterase [2].

Take `CCN(CC)Cc1ccccc1CNC(=O)c1cccc(NC(=O)c2ccccc2)c1`: inhibition against Cholinesterase [2] was half-maximal at 0.96 nM (IC50).

In turn, `CN(C)Cc1ccccc1NC(=O)c1cccc(NC(=O)c2cccs2)c1` had an IC50 at Cholinesterase [1] of 1240 nM.

For `CCN(CC)Cc1ccccc1CNC(=O)c1cccc(OC(=O)c2cccs2)c1`, the IC50 against Cholinesterase [1] stood at 132 nM; against Cholinesterase [2], 158 nM.

On to `CCN(CC)Cc1ccccc1CNC(=O)c1cccc(NC(=O)c2ccc(I)cc2)c1`, for which the Papp at 18 h in data set [10] is 10.1 ×10⁻⁶ cm/s. The IC50 on Cholinesterase [1] amounted to 0.11 nM; on Cholinesterase [2], 0.34 nM.

As to `CCN(CC)Cc1ccccc1CNC(=O)c1cc(NC(=O)c2ccc(F)cc2)ccc1Br`, the values for the IC50 on Cholinesterase [1] and on Cholinesterase [2] were 16.1 nM and 3.53 nM, respectively.

For the compound `O=C(NCc1ccccc1)c1cccc(NC(=O)c2cccs2)c1`, the IC50 is 31300 nM against Cholinesterase [1] and 97300 nM on Cholinesterase [2].

For `CCN(CC)Cc1ccccc1CNC(=O)c1cc(C#N)cc(NC(=O)c2ccc(F)cc2)c1`, the IC50 against Cholinesterase [1] stood at 3.16 nM; against Cholinesterase [2], 1.51 nM.

With `CCN(CC)Cc1ccccc1CNC(=O)c1cccc(NC(=O)c2cccs2)c1`, the Activity entry in the data set on HT-22, with SH-SY5Y, with BV-2 and in the data set with PC-12 [6] was “Non-Toxic” each time. In [9], this compound yielded a logP of 2.11. For the same compound, in data set [10], the Papp at 18 h was 19 ×10⁻⁶ cm/s. Further, the viability at 10 µM in [3], in data set [4], in [5] and in data set [7] was more than 70% each time. The compound also yielded an IC50 against Cholinesterase [1] of 0.35 nM.

Regarding `CCN(CC)C(C)CN1c2ccccc2Sc2ccccc21` (stereo unspecified) [ETHOPROPAZINE], the inhibition constant (Ki) in data set [12] was found to be 20 nM.

As to `CCN(CC)Cc1ccccc1CNC(=O)c1cc(NC(=O)c2ccc(F)cc2)cc(C(F)(F)F)c1`, the IC50 against Cholinesterase [1] is 8.67 nM; against Cholinesterase [2] it was 1.35 nM.

For `CCN(CC)Cc1ccccc1CNC(=O)c1cccc(NC(=O)c2ccco2)c1`, the Activity result in the data set on HT-22, in the data set on SH-SY5Y, with BV-2 and with PC-12 [6] was “Non-Toxic” throughout. In addition, in data set [10], the Papp at 18 h came to 6.89 ×10⁻⁶ cm/s. The viability at 10 µM in data set [3], in data set [4], in data set [5] and in [7] was more than 70% each time. The same compound gave an IC50 on Cholinesterase [1] of 0.26 nM.

Take `CCN(CC)Cc1cccc(CNC(=O)c2cccc(NC(=O)c3cccs3)c2)c1`: the IC50 amounted to 48900 nM against Cholinesterase [1] and 55000 nM on Cholinesterase [2].

As to `CCN(CC)Cc1ccccc1CNC(=O)c1ccc(Br)c(NC(=O)c2ccc(F)cc2)c1`, the figures for the IC50 on Cholinesterase [1] and on Cholinesterase [2] were 2.58 nM and 2.42 nM, respectively.

As to `CCN(CC)Cc1ccccc1CNC(=O)c1cccc(NC(=O)c2ccc(OC)cc2)c1`, the Activity entry with HT-22, in the data set with SH-SY5Y, with BV-2 and with PC-12 [6] was “Non-Toxic” throughout. Moreover, the viability at 10 µM in [3], in [4], in [5] and in data set [7] was more than 70% each time.

Consider `CCN(CC)Cc1ccccc1CNC(=O)c1cccc(C(=O)Nc2cccs2)c1`, for which the values for the IC50 on Cholinesterase [1] and on Cholinesterase [2] were 12.9 nM and 1.19 nM, respectively.

`CCN(CC)Cc1ccccc1CNC(=O)c1cccc(NC(=O)c2ccc(Br)cc2)c1` yielded a logP in data set [9] of 2.73. For the same compound, the IC50 at Cholinesterase [1] stood at 0.13 nM; against Cholinesterase [2], 0.087 nM.

As to `Cc1ccccc1NC(=O)c1cccc(NC(=O)c2cccs2)c1`, the values for the IC50 against Cholinesterase [1] and against Cholinesterase [2] were 11100 nM and 12900 nM, respectively.

As for `CCN(CC)Cc1ccccc1CNC(=O)c1cccc(NC(=O)c2ccc(C)cc2)c1`, the Activity entry in the data set on HT-22, in the data set on SH-SY5Y, with BV-2 and in the data set with PC-12 [6] was “Non-Toxic” throughout. Further, the viability at 10 µM in [3], in data set [4], in data set [5] and in data set [7] was more than 70% in each case. Further, the results for the IC50 against Cholinesterase [1] and on Cholinesterase [2] were 45 nM and 77.3 nM, respectively.

As to `CCN(CC)Cc1ccccc1CNC(=O)c1cc(F)cc(NC(=O)c2ccc(F)cc2)c1`, the logP in data set [9] was 1.36. Moreover, the IC50 came out at 0.61 nM on Cholinesterase [1] and 0.55 nM at Cholinesterase [2].

As to `CCCN(CCC)Cc1ccccc1NC(=O)c1cccc(NC(=O)c2cccs2)c1`, the IC50 at Cholinesterase [1] turned out to be 870 nM; against Cholinesterase [2] it was 120 nM.

In the case of `CCN(CC)Cc1ccccc1CNC(=O)c1cccc(NS(=O)(=O)c2cccs2)c1`, the IC50 against Cholinesterase [1] was determined as 2610 nM; at Cholinesterase [2] it was 350 nM.

In turn, `CCN(CC)Cc1ccccc1CNC(=O)c1cccc(NC(=O)c2cccc(F)c2)c1` showed an IC50 on Cholinesterase [1] of 3.11 nM.

As to `CCN(CC)Cc1ccccc1CNC(=O)c1cccc(NC(=O)c2ccc(F)cc2)c1Br`, the results for the IC50 at Cholinesterase [1] and against Cholinesterase [2] were 1840 nM and 14.4 nM, respectively.

Turning to `CCN(CC)Cc1ccccc1CNC(=O)c1ccc(NC(=O)c2ccc(F)cc2)cc1`, the 50% inhibitory concentration (IC50) on Cholinesterase [1] stood at 5.29 nM; at Cholinesterase [2], 4.99 nM.

Turning to `CCN(CC)Cc1ccccc1CNC(=O)c1ccccc1NC(=O)c1ccc(F)cc1`, the half-maximal inhibitory concentration (IC50) against Cholinesterase [1] came to 115 nM; on Cholinesterase [2] it was 187 nM.

Turning to `CCN(CC)Cc1ccccc1CNC(=O)c1cccc(NC(=O)C2CCCCC2)c1`, the IC50 against Cholinesterase [1] was 3.71 nM; against Cholinesterase [2], 7.9 nM.

On to `CCN(CC)Cc1ccccc1CNC(=O)c1cc(Cl)cc(NC(=O)c2ccc(F)cc2)c1`, for which the Activity result in the data set on HT-22, in the data set with SH-SY5Y, with BV-2 and in the data set with PC-12 [6] was “Non-Toxic” in each case. The same compound had a logP in data set [9] of 1.11. The Papp at 18 h in data set [10] worked out at 7.54 ×10⁻⁶ cm/s. Further, the viability at 10 µM in data set [3], in data set [4], in data set [5] and in data set [7] was more than 70% in each case. In addition, the IC50 turned out to be 0.22 nM against Cholinesterase [1] and 0.16 nM against Cholinesterase [2].

(Values after ChEMBL document CHEMBL5137095, “N-Benzyl Benzamide Derivatives as Selective Sub-Nanomolar Butyrylcholinesterase Inhibitors for Possible Treatment in Advanced Alzheimer's Disease” (J Med Chem, 2022).)
